ChEMBL document CHEMBL1159111, “Design, synthesis and biological evaluation of chrysin long-chain derivatives as potential anticancer agents” (Bioorg Med Chem, 2010)
In brackets after ≈: the same amount, converted by molar mass.

Tests used:
[1] = tested on: HT-29; assay: Antiproliferative activity against human HT-29 cells after 48 hrs by MTT assay; conditions: HT-29, 48 h
[2] = biological target: Epidermal growth factor receptor (Homo sapiens, UniProt P00533); assay: Inhibition of EGFR expressed in Sf9 cells assessed as inhibition of receptor autophosphorylation by DELFIA time resolved fluorimetry
Epidermal growth factor receptor, sequence (P00533 whole entry): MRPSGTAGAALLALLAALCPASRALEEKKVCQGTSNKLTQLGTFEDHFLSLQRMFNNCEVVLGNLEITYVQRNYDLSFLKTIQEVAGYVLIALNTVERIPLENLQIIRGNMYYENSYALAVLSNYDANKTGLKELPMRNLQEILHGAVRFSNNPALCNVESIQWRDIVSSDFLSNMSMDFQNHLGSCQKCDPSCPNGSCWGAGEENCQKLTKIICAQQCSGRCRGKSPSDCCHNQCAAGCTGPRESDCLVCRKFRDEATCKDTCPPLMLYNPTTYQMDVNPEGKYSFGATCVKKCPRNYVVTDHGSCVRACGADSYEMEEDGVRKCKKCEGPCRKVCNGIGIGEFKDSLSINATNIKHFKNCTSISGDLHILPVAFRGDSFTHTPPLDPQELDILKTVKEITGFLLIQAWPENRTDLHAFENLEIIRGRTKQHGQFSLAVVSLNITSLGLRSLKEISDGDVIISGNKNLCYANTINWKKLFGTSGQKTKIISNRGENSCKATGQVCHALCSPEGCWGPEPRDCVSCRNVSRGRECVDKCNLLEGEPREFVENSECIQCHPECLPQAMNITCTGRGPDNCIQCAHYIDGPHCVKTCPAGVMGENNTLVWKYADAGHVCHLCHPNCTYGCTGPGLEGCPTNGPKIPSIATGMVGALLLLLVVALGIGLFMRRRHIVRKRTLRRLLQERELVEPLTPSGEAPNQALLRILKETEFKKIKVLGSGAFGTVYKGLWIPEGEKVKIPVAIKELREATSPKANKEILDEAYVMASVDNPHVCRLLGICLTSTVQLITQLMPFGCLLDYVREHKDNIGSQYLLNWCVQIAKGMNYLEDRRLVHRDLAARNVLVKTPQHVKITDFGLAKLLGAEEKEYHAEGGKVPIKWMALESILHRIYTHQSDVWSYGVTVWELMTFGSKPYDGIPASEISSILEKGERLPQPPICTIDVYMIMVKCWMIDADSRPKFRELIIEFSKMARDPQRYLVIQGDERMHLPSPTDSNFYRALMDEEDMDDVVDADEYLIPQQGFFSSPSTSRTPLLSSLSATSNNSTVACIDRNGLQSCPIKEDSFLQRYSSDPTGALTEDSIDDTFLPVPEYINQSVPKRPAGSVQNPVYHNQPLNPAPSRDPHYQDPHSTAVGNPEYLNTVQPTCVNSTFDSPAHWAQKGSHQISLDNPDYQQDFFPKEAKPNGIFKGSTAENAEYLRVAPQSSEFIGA

IC50 [1] [µg/mL] | IC50 [2] [µM] | SMILES
16 (≈ 31.5 µM) |  | CCCCCCCCCCCCCCOC(=O)COc1cc(O)c2c(=O)cc(-c3ccccc3)oc2c1
67 (≈ 169 µM) | 8.71 | CCCCCCNC(=O)COc1cc(O)c2c(=O)cc(-c3ccccc3)oc2c1
20 (≈ 33.7 µM) | 1.59 | CCCCCCCCCCCCCCCCCCCCOC(=O)COc1cc(O)c2c(=O)cc(-c3ccccc3)oc2c1
25 (≈ 55.4 µM) | 2.14 | CCCCCCCCCCNC(=O)COc1cc(O)c2c(=O)cc(-c3ccccc3)oc2c1
43 (≈ 98.1 µM) | 4.96 | CCCCCCCCCOC(=O)COc1cc(O)c2c(=O)cc(-c3ccccc3)oc2c1
15 (≈ 26.6 µM) | 0.692 | CCCCCCCCCCCCCCCCCCOC(=O)COc1cc(O)c2c(=O)cc(-c3ccccc3)oc2c1
8 (≈ 15.8 µM) | 0.316 | CCCCCCCCCCCCCCNC(=O)COc1cc(O)c2c(=O)cc(-c3ccccc3)oc2c1
31 (≈ 68.5 µM) | 3.11 | CCCCCCCCCCOC(=O)COc1cc(O)c2c(=O)cc(-c3ccccc3)oc2c1
77 (≈ 194 µM) | 9.12 | CCCCCCOC(=O)COc1cc(O)c2c(=O)cc(-c3ccccc3)oc2c1
24 (≈ 49.9 µM) | 1.72 | CCCCCCCCCCCCOC(=O)COc1cc(O)c2c(=O)cc(-c3ccccc3)oc2c1
51 (≈ 120 µM) | 5.33 | CCCCCCCCNC(=O)COc1cc(O)c2c(=O)cc(-c3ccccc3)oc2c1
16 (≈ 33.4 µM) |  | CCCCCCCCCCCCNC(=O)COc1cc(O)c2c(=O)cc(-c3ccccc3)oc2c1
58 (≈ 141 µM) | 7.23 | CCCCCCCOC(=O)COc1cc(O)c2c(=O)cc(-c3ccccc3)oc2c1
51 (≈ 120 µM) | 5.84 | CCCCCCCCOC(=O)COc1cc(O)c2c(=O)cc(-c3ccccc3)oc2c1
39 (≈ 89.1 µM) | 3.58 | CCCCCCCCCNC(=O)COc1cc(O)c2c(=O)cc(-c3ccccc3)oc2c1
19 (≈ 32.1 µM) | 1.35 | CCCCCCCCCCCCCCCCCCCCNC(=O)COc1cc(O)c2c(=O)cc(-c3ccccc3)oc2c1
65 (≈ 159 µM) | 6.28 | CCCCCCCNC(=O)COc1cc(O)c2c(=O)cc(-c3ccccc3)oc2c1
4.2 (≈ 7.84 µM) | 0.035 | CCCCCCCCCCCCCCCCNC(=O)COc1cc(O)c2c(=O)cc(-c3ccccc3)oc2c1
11 (≈ 19.5 µM) | 0.464 | CCCCCCCCCCCCCCCCCCNC(=O)COc1cc(O)c2c(=O)cc(-c3ccccc3)oc2c1
8.7 (≈ 16.2 µM) | 0.048 | CCCCCCCCCCCCCCCCOC(=O)COc1cc(O)c2c(=O)cc(-c3ccccc3)oc2c1
